The first experiment concerns Jily. In words: MTS proliferation assay, Jily. The class given is cell-based. The settings on record: 72 h incubation, read-out: MTS proliferation assay IC 50 Jily. On the procedure: (§1) Cell lines are cultured in RPMI-1640 tissue culture medium containing either 5% or 10% fetal calf serum, 0.05 mM 2-mercaptoethanol, 2 mM glutamine and penicillin/streptomycin 50 μg/ml (complete medium) (Sigma, Buchs, Switzerland). General growth conditions are 37° C. and 7.5% CO2.
(§2) The assay is performed in 96 well tissue culture plates. The cells (range: 1.5*10^3-10^4) are seeded out in 80 μl complete medium 24 h prior to compound treatment. The test compounds are added in 20 μl complete medium containing max 5% DMSO. The final compound concentrations in the assays are 10 μM, 3 μM, 1 μM and 0.3 μM, respectively. The assay plates are incubated for 72 h at culture conditions. The MTS reagent is prepared according to the manufacturer's protocol (Promega G1111). 20 μl MTS reagent are added to each well, the assay plates are quickly spun and incubated for another 3 h at culture conditions. Subsequently, the plates are shortly shaked and absorption measured with a microplate-reader at 492 nm.
On to `Cc1ccc(C(=O)Cn2c(-c3nonc3NCCC#N)nc3ccccc32)cc1C` [Example 54], for which the IC50 is 10 to 100 nM.

Regarding `CCc1ccc(C(=O)Cn2c(-c3nonc3N)nc3ccccc32)cc1` [Example 55], the IC50 is 10 to 100 nM.

A further experiment deals with adherent cells or suspension cells. Description: Hoechst 33342 nuclear staining (fraction of apoptotic nuclei). The class given is cell-based. The arrangement: key: 0 relating to no activity; 1 relating to weak activity comprising less than 70% of the cells; score 2 relating to strong activity comprising more than 70% of the cells. Particulars: H460, conc 0.01 μm.
Turning to `Cc1ccc(C(=O)Cn2c(-c3nonc3NCCC#N)nc3ccccc32)cc1C` [Example 54], the “Hoechst 33342 nuclear staining score” value came to 0.

As to `CCc1ccc(C(=O)Cn2c(-c3nonc3N)nc3ccccc32)cc1` [Example 55], the “Hoechst 33342 nuclear staining score” value turned out to be 0.

Still in this experiment, the particulars now being: H460, conc 0.1 μm.
As to `Cc1ccc(C(=O)Cn2c(-c3nonc3NCCC#N)nc3ccccc32)cc1C` [Example 54], the “Hoechst 33342 nuclear staining score” value is on record as 2 (score 2 relating to strong activity comprising more than 70% of the cells).

In the case of `CCc1ccc(C(=O)Cn2c(-c3nonc3N)nc3ccccc32)cc1` [Example 55], the “Hoechst 33342 nuclear staining score” value is reported as 0.

Still in this experiment, the particulars now being: H460, conc 1 μm.
For the compound `Cc1ccc(C(=O)Cn2c(-c3nonc3NCCC#N)nc3ccccc32)cc1C` [Example 54], the “Hoechst 33342 nuclear staining score” value is 2 (score 2 relating to strong activity comprising more than 70% of the cells).

Regarding `CCc1ccc(C(=O)Cn2c(-c3nonc3N)nc3ccccc32)cc1` [Example 55], the “Hoechst 33342 nuclear staining score” value is 2 (score 2 relating to strong activity comprising more than 70% of the cells).

The experiment is the same for the next values; noted with them: HeLa, conc 0.01 μm.
As to `Cc1ccc(C(=O)Cn2c(-c3nonc3NCCC#N)nc3ccccc32)cc1C` [Example 54], the “Hoechst 33342 nuclear staining score” value is reported as 0.

In the case of `CCc1ccc(C(=O)Cn2c(-c3nonc3N)nc3ccccc32)cc1` [Example 55], the “Hoechst 33342 nuclear staining score” value is given as 0.

The experiment is the same for the next values; noted with them: HeLa, conc 0.1 μm.
As to `Cc1ccc(C(=O)Cn2c(-c3nonc3NCCC#N)nc3ccccc32)cc1C` [Example 54], the “Hoechst 33342 nuclear staining score” value is 2 (score 2 relating to strong activity comprising more than 70% of the cells).

For the compound `CCc1ccc(C(=O)Cn2c(-c3nonc3N)nc3ccccc32)cc1` [Example 55], the “Hoechst 33342 nuclear staining score” value was found to be 0.

Staying with this experiment, now noted: HeLa, conc 1 μm.
As for `Cc1ccc(C(=O)Cn2c(-c3nonc3NCCC#N)nc3ccccc32)cc1C` [Example 54], the “Hoechst 33342 nuclear staining score” value was 2 (score 2 relating to strong activity comprising more than 70% of the cells).

With `CCc1ccc(C(=O)Cn2c(-c3nonc3N)nc3ccccc32)cc1` [Example 55], the “Hoechst 33342 nuclear staining score” value is 2 (score 2 relating to strong activity comprising more than 70% of the cells).

Staying with this experiment, now noted: Jily, conc 0.01 μm.
Regarding `Cc1ccc(C(=O)Cn2c(-c3nonc3NCCC#N)nc3ccccc32)cc1C` [Example 54], the “Hoechst 33342 nuclear staining score” value is reported as 1 (1 relating to weak activity comprising less than 70% of the cells).

For the compound `CCc1ccc(C(=O)Cn2c(-c3nonc3N)nc3ccccc32)cc1` [Example 55], the “Hoechst 33342 nuclear staining score” value was determined as 0.

Staying with this experiment, now noted: Jily, conc 0.1 μm.
`Cc1ccc(C(=O)Cn2c(-c3nonc3NCCC#N)nc3ccccc32)cc1C` [Example 54]: the “Hoechst 33342 nuclear staining score” value is 2 (score 2 relating to strong activity comprising more than 70% of the cells).

With `CCc1ccc(C(=O)Cn2c(-c3nonc3N)nc3ccccc32)cc1` [Example 55], the “Hoechst 33342 nuclear staining score” value was 0.

Still in this experiment, the particulars now being: Jily, conc 1 μm.
Take `Cc1ccc(C(=O)Cn2c(-c3nonc3NCCC#N)nc3ccccc32)cc1C` [Example 54]: the “Hoechst 33342 nuclear staining score” value is given as 2 (score 2 relating to strong activity comprising more than 70% of the cells).

For the compound `CCc1ccc(C(=O)Cn2c(-c3nonc3N)nc3ccccc32)cc1` [Example 55], the “Hoechst 33342 nuclear staining score” value is 2 (score 2 relating to strong activity comprising more than 70% of the cells).

The same experiment, now with this note: Jurkat, conc 0.01 μm.
With `Cc1ccc(C(=O)Cn2c(-c3nonc3NCCC#N)nc3ccccc32)cc1C` [Example 54], the “Hoechst 33342 nuclear staining score” value is on record as 1 (1 relating to weak activity comprising less than 70% of the cells).

Regarding `CCc1ccc(C(=O)Cn2c(-c3nonc3N)nc3ccccc32)cc1` [Example 55], the “Hoechst 33342 nuclear staining score” value is on record as 0.

Still in this experiment, the particulars now being: Jurkat, conc 0.1 μm.
Regarding `Cc1ccc(C(=O)Cn2c(-c3nonc3NCCC#N)nc3ccccc32)cc1C` [Example 54], the “Hoechst 33342 nuclear staining score” value is recorded as 2 (score 2 relating to strong activity comprising more than 70% of the cells).

Consider `CCc1ccc(C(=O)Cn2c(-c3nonc3N)nc3ccccc32)cc1` [Example 55], for which the “Hoechst 33342 nuclear staining score” value is listed as 1 (1 relating to weak activity comprising less than 70% of the cells).

Staying with this experiment, now noted: Jurkat, conc 1 μm.
As to `Cc1ccc(C(=O)Cn2c(-c3nonc3NCCC#N)nc3ccccc32)cc1C` [Example 54], the “Hoechst 33342 nuclear staining score” value was 2 (score 2 relating to strong activity comprising more than 70% of the cells).

In the case of `CCc1ccc(C(=O)Cn2c(-c3nonc3N)nc3ccccc32)cc1` [Example 55], the “Hoechst 33342 nuclear staining score” value is 2 (score 2 relating to strong activity comprising more than 70% of the cells).

Staying with this experiment, now noted: MRC5, conc 0.01 μm.
`Cc1ccc(C(=O)Cn2c(-c3nonc3NCCC#N)nc3ccccc32)cc1C` [Example 54]: the “Hoechst 33342 nuclear staining score” value came out at 0.

In the case of `CCc1ccc(C(=O)Cn2c(-c3nonc3N)nc3ccccc32)cc1` [Example 55], the “Hoechst 33342 nuclear staining score” value is given as 0.

The experiment is the same for the next values; noted with them: MRC5, conc 0.1 μm.
`Cc1ccc(C(=O)Cn2c(-c3nonc3NCCC#N)nc3ccccc32)cc1C` [Example 54]: the “Hoechst 33342 nuclear staining score” value is given as 2 (score 2 relating to strong activity comprising more than 70% of the cells).

Consider `CCc1ccc(C(=O)Cn2c(-c3nonc3N)nc3ccccc32)cc1` [Example 55], for which the “Hoechst 33342 nuclear staining score” value came out at 0.

Staying with this experiment, now noted: MRC5, conc 1 μm.
For the compound `Cc1ccc(C(=O)Cn2c(-c3nonc3NCCC#N)nc3ccccc32)cc1C` [Example 54], the “Hoechst 33342 nuclear staining score” value is given as 2 (score 2 relating to strong activity comprising more than 70% of the cells).

Consider `CCc1ccc(C(=O)Cn2c(-c3nonc3N)nc3ccccc32)cc1` [Example 55], for which the “Hoechst 33342 nuclear staining score” value is given as 0.

Still in this experiment, the particulars now being: PBLs, conc 0.01 μm.
Consider `Cc1ccc(C(=O)Cn2c(-c3nonc3NCCC#N)nc3ccccc32)cc1C` [Example 54], for which the “Hoechst 33342 nuclear staining score” value came out at 0.

As for `CCc1ccc(C(=O)Cn2c(-c3nonc3N)nc3ccccc32)cc1` [Example 55], the “Hoechst 33342 nuclear staining score” value came to 0.

Still in this experiment, the particulars now being: PBLs, conc 0.1 μm.
With `Cc1ccc(C(=O)Cn2c(-c3nonc3NCCC#N)nc3ccccc32)cc1C` [Example 54], the “Hoechst 33342 nuclear staining score” value was 0.

On to `CCc1ccc(C(=O)Cn2c(-c3nonc3N)nc3ccccc32)cc1` [Example 55], for which the “Hoechst 33342 nuclear staining score” value was 0.

The same experiment, now with this note: PBLs, conc 1 μm.
Turning to `Cc1ccc(C(=O)Cn2c(-c3nonc3NCCC#N)nc3ccccc32)cc1C` [Example 54], the “Hoechst 33342 nuclear staining score” value stood at 0.

Take `CCc1ccc(C(=O)Cn2c(-c3nonc3N)nc3ccccc32)cc1` [Example 55]: the “Hoechst 33342 nuclear staining score” value came out at 0.

The next experiment deals with HeLa. In words: MTS proliferation assay, HeLa. The class given is cell-based, human. The settings on record: 72 h incubation, read-out: MTS proliferation assay IC 50 HeLa. An outline of the steps: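 A 72 h exposure to compound (final 0.3–10 μM, four levels) was followed by 3 h MTS incubation and an A492 read.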
Take `Cc1ccc(C(=O)Cn2c(-c3nonc3NCCC#N)nc3ccccc32)cc1C` [Example 54]: the IC50 lay within 10 to 100 nM.

Consider `CCc1ccc(C(=O)Cn2c(-c3nonc3N)nc3ccccc32)cc1` [Example 55], for which the IC50 lay in the range of 100 to 1000 nM.

The subject of another experiment is MRC5. Description: MTS proliferation assay, MRC5. The format is cell-based. The settings on record: MRC5, 72 h incubation; read-out: MTS proliferation assay IC 50 MRC5. An outline of the steps:
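Proliferation is followed by MTS conversion, measured as absorbance at 492 nm. Cells are exposed for 72 h to four fixed compound concentrations (10 μM down to 0.3 μM) under 37° C, 7.5% CO2 culture conditions.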
Regarding `Cc1ccc(C(=O)Cn2c(-c3nonc3NCCC#N)nc3ccccc32)cc1C` [Example 54], the IC50 is 10 to 100 nM.

`CCc1ccc(C(=O)Cn2c(-c3nonc3N)nc3ccccc32)cc1` [Example 55]: the IC50 lay in the range of 100 to 1000 nM.

A further experiment relates to HT1080. Description: MTS proliferation assay, HT1080. The class given is cell-based, human. Particulars: HT1080, 72 h incubation; read-out: MTS proliferation assay IC 50 HT1080. On the procedure: as §1
The following human cell lines (either EGFP transfected or not) are being used: HeLa (ATCC: CCL-2), KB (ATCC: CCL-17), MCF7 (ATCC: HTB-22), SK-BR-3 (ATCC: HTB-30), SK-Mel 1 (ATCC: HTB-67), SK-Mel 28 (ATCC: HTB-72), PC-3 (ATCC: CRL-1435), SW 480 (ATCC: CCL-228), NCl-H460 (ATCC: HTB-177), NCl-H1792 (ATCC: CRL-5895), HT1080 (ATCC: CCL-21), Jurkat (ATCC: TIB-152), Ramos (ATCC: CRL-1596), Raji (ATCC: CCL-86), H9 (ATCC: HTB-176), Hut78 (ATCC: TIB-161), K562 (ATCC: CCL 243), HL-60 (ATCC: CCL 240), U-87MG (ATCC: HTB-14), HepG2 (ATCC: HB-8065), U-2 OS (ATCC: HTB-96), Saos-2 (ATCC: HTB-85), U937 (ATCC: CRL 1593), Hs 578T (ATCC: HTB 126), HBL-100 (ATCC: HTB 124), Molt-4 (ATCC: CRL 1582).
as §2
As to `Cc1ccc(C(=O)Cn2c(-c3nonc3NCCC#N)nc3ccccc32)cc1C` [Example 54], the IC50 was 10 to 100 nM.

With `CCc1ccc(C(=O)Cn2c(-c3nonc3N)nc3ccccc32)cc1` [Example 55], the IC50 is 100 to 1000 nM.

Source of the values: patent USRE42890E1, “Furazanobenzimidazoles” (Basilea Pharmaceutica AG, priority 2003, dated 2011).
